In patent publication US20110217337A1, “BIOACTIVE AGENT FOR BONE TISSUE ENGINEERING” (UNIVERSITY OF CONNECTICUT, priority 2010, published 2011) one finds ALP activity data, which are given here for one compound.

For this test, the system named is rat mesenchymal stem cells. As to the kind of experiment: ALP activity in mesenchymal stem cells. Format: cell-based. The following applies: vs untreated control; day 7. The procedure: FIG. 10. ALP activity in untreated (control) rat mesenchymal stem cells and cells treated with BMP-2 or 6-Bnz-cAMP. A-BMP-2 peptide; E-6-Bnz-cAMP; F-Control. […] ALP activities of mesenchymal stem cells were induced by 6-Bnz-cAMP at day 7.
Cell adhesion, proliferation, and differentiation studies: Rabbit MSCs are plated onto PLAGA matrices at a plating density of 1×10^4 cells/cm^2 and cultured in standard basal medium. Four experimental groups are tested: (1) untreated cells, (2) 6-Bnz-cAMP treated cells, (3) BMP-2 treated cells, and (4) 6-Bnz-cAMP and BMP-2 treated cells. […] Initial cell adhesion is determined at 1 h, 3 h, 12 h, and 24 h. Cell proliferation and cell differentiation are determined at 1, 7, 14, and 21 days. Calcium deposition and ALP activity is also measured at days 3, 7, 14, and 21 in untreated cells compared to cells treated with BMP-2 or 6-Bnz-cAMP (FIGS. 9 and 10). […] For the cell adhesion assay, attached cells are quantified by crystal violet stain, a method routinely used to measure the initial cell adhesion. Cell proliferation is measured using a commercially available proliferation assay kit, MTS (Promega). For alkaline phosphatase (ALP) activity, the early markers of osteoblast differentiation are determined with a commercially availia ALP assay kit (Bio-rad). […]

Take `O=C(Nc1ncnc2c1ncn2C1O[C@@H]2COP(=O)([O-])O[C@H]2[C@H]1O)c1ccccc1.[Na+]` (stereo partly shown) [6-Bnz-cAMP, N^6-Benzoyladenosine-3′,5′-cyclic monophosphate]: the ALP activity entry is on record as “increases ALP activity”.
